# In paper PMC4118831, “Interaction of serum amyloid P component with hexanoyl bis(D-proline) (CPHPC)” (Acta Crystallographica Section D: Biological Crystallography, 2014):
# Target: T1, serum amyloid P component (SAP) (Homo sapiens, UniProt P02743)
# T1 construct: gene APCS; pentamer purified from serum; 204-residue subunits
# Experiment: ITC; crystal structure
# Format: binding
# T1 sequence (P02743 20-223): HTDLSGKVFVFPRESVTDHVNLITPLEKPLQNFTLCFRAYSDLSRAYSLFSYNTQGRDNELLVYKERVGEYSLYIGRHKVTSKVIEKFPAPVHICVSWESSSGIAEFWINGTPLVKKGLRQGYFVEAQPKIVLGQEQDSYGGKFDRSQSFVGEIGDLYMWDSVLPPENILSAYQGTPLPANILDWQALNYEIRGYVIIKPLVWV
row,Kd,SMILES
1,18.6 µM,CC(=O)N1CCC[C@@H]1C(=O)O [N-acetyl-D-proline]
2,322 µM,CC(=O)N1CCC[C@H]1C(=O)O [N-acetyl-L-proline]
